By IC50 is commonly meant the concentration needed to halve the response being measured.

The record followed here is patent publication US20260015358A1, “BICYCLIC DERIVATIVES, COMPOSITIONS AND USES THEREOF” (Danatlas Pharmaceuticals Co., Ltd., priority 2023, published 2026).

Experiment [1] deals with T1, WRN [UniPro: Q14191 (WRN_HUMAN), N500-C946] (Homo sapiens (Human), UniProt Q14191). In words: WRN ATPase assay (ADP-Glo). It is filed as biochemical. Conditions: WRN enzymatic activity assay.
Experiment [2] has as its target T1, WRN [UniPro: Q14191 (WRN_HUMAN), N500-C946]. Nature of the experiment: WRN unwinding assay (FORKF DNA, fluorescence). It is filed as biochemical. Conditions: Table 14.

T1 sequence (Q14191 500-946): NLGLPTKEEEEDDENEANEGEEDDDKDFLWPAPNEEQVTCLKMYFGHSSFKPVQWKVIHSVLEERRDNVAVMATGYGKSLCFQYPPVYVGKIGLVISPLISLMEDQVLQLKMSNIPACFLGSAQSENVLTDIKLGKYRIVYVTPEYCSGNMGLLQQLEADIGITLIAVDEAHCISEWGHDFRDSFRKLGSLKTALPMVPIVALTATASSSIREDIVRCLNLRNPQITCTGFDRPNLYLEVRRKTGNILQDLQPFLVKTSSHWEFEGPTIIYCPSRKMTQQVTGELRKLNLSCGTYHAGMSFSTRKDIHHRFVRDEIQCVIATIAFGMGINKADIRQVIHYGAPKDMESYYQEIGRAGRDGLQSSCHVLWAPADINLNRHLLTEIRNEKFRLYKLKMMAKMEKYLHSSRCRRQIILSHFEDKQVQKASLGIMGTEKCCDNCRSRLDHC

For the molecule `CCc1c(N2CCN(C(=O)c3nc4ccccc4cc3N)CC2)c(=O)n2nc(C3=CCOCC3)nc2n1CC(=O)Nc1ccc(C(F)(F)F)cc1Cl` [Example 307, 2-(6-(4-(3-Aminoquinoline-2-carbonyl)piperazin-1-yl)-2-(3,6-dihydro-2H-pyran-4-yl)-5-ethyl-7-oxo-[1,2,4]triazolo[1,5-a]pyrimidin-4(7H)-yl)-N-(2-chloro-4 (trifluoromethyl)phenyl)acetamide], the 50% inhibitory concentration (IC50) was 100 to 1000 nM in experiment [1] and less than 100 nM in experiment [2].
For the molecule `CCc1c(N2CCN(C(=O)c3cnc4sc(Cl)nc4c3O)CC2)c(=O)n2nc(C3=CCOCC3)nc2n1CC(=O)Nc1ccc(C(F)(F)F)cc1F` [Example 308, 2-(6-(4-(2-Chloro-7-hydroxythiazolo[5,4-b]pyridine-6-carbonyl)piperazin-1-yl)-2-(3,6-dihydro-2H-pyran-4-yl)-5-ethyl-7-oxo-[1,2,4]triazolo[1,5-a]pyrimidin-4(7H)-yl)-N-(2-fluoro-4-(trifluoromethyl)phenyl)acetamide], the IC50 in experiment [1] and in experiment [2] was less than 100 nM throughout.
Regarding `CCc1c(N2CCN(C(=O)c3nnc(C(F)F)[nH]3)CC2)c(=O)n2nc(C3=CCOCC3)nc2n1CC(=O)Nc1ccc(C(F)(F)F)cc1F` [Example 310, 2-(6-(4-(5-(Difluoromethyl)-4H-1,2,4-triazole-3-carbonyl)piperazin-1-yl)-2-(3,6-dihydro-2H-pyran-4-yl)-5-ethyl-7-oxo-[1,2,4]triazolo[1,5-a]pyrimidin-4(7H)-yl)-N-(2-fluoro-4-(trifluoromethyl)phenyl)acetamide], the IC50 in experiment [1] and in experiment [2] was less than 100 nM each time.
Consider `CCc1c(N2CCN(C(=O)c3nnc(C(F)(F)F)[nH]3)CC2)c(=O)n2nc(C3=CCOCC3)nc2n1CC(=O)Nc1ccc(C(F)(F)F)cc1F` [Example 311, 2-(2-(3,6-Dihydro-2H-pyran-4-yl)-5-ethyl-7-oxo-6-(4-(5-(trifluoromethyl)-4H-1,2,4-triazole-3-carbonyl)piperazin-1-yl)-[1,2,4]triazolo[1,5-a]pyrimidin-4(7H)-yl)-N-(2-fluoro-4-(trifluoromethyl)phenyl)acetamide], for which the IC50 in experiment [1] and in experiment [2] was less than 100 nM in each case.
Consider `CCc1c(N2CCN(C(=O)c3nnc(C)[nH]3)CC2)c(=O)n2nc(C3=CCOCC3)nc2n1CC(=O)Nc1ccc(C(F)(F)F)cc1F` [Example 312, 2-(2-(3,6-Dihydro-2H-pyran-4-yl)-5-ethyl-6-(4-(5-methyl-4H-1,2,4-triazole-3-carbonyl)piperazin-1-yl)-7-oxo-[1,2,4]triazolo[1,5-a]pyrimidin-4(7H)-yl)-N-(2-fluoro-4-(trifluoromethyl)phenyl)acetamide], for which the IC50 in experiment [1] and in experiment [2] was 100 to 1000 nM in each case.
For the molecule `CCc1c(N2CCN(C(=O)c3cc4cnccc4[nH]3)CC2)c(=O)n2nc(C3=CCOCC3)nc2n1CC(=O)Nc1ccc(C(F)(F)F)cc1Cl` [Example 313, 2-(6-(4-(1H-Pyrrolo[3,2-c]pyridine-2-carbonyl)piperazin-1-yl)-2-(3,6-dihydro-2H-pyran-4-yl)-5-ethyl-7-oxo-[1,2,4]triazolo[1,5-a]pyrimidin-4(7H)-yl)-N-(2-chloro-4-(trifluoromethyl)phenyl)acetamide], the IC50 in experiment [1] and in experiment [2] was 100 to 1000 nM throughout.
With `CCc1c(N2CCN(C(=O)c3c(OC)cn[nH]c3=O)CC2)c(=O)n2nc(C3=CCOCC3)nc2n1CC(=O)Nc1ccc(C(F)(F)F)cc1Cl` [Example 314, N-(2-Chloro-4-(trifluoromethyl)phenyl)-2-(2-(3,6-dihydro-2H-pyran-4-yl)-5-ethyl-6-(4-(3-hydroxy-5-methoxypyridazine-4-carbonyl)piperazin-1-yl)-7-oxo-[1,2,4]triazolo[1,5-a]pyrimidin-4(7H)-yl)acetamide], the half-inhibitory concentration (IC50) is 100 to 1000 nM in experiment [1] and more than 1000 nM in experiment [2].
